System: CHIKV
Assay type: cell-based, chikungunya virus

Going from “s8290 (sense GGTGCTAACCGGATAGTAT; chemistry not given here)” to “s8543 (CCTCAACAGTCACGTCAGA; chemistry not given here)”, the Score_si4 falls from 0.74 to -0.08.

Going from “s9031 (CGACGACAGCTACTGGTTT; chemistry not given here)” to “s9325 (CTTCAGTGCTGATCAGGTA; chemistry not given here)”, the Score_si4 falls from 0.9 to 0.41.

Going from “s9337 (GCTCTCCAACAATTACTAT; chemistry not given here) [reference compound]” to “s9628 (GACCTAAAGAAGGAGATTA; chemistry not given here)”, the Score_si4 rises from -0.09 to 1.13.

Compared with “s9666 (CGTGTACTCTGTTTCGACA; chemistry not given here) [reference compound]”, “s10094 (AGATCAAAGAGATCCGCGA; chemistry not given here)” is higher in Score_si4: -0.83 for the first, 0.28 for the second.

Going from “s10394 (GCTTTATGCTGCTAAGGCA; chemistry not given here)” to “s10857 (sense GAATCCGGTTTGGAATATA; chemistry not given here)”, the Score_si4 falls from 1.23 to -0.29.

Compared with “s10955 (sense GAGAAGAAGTATTACTTAT; chemistry not given here)”, “s11517 (sense GCGAAGTGTTTGTAAATCA; chemistry not given here)” is higher in Score_si4: 0.29 for the first, 1.19 for the second.

First: s11586 (sense GGATAGTGTTCTTAGCAAT; chemistry not given here)
Second: s12245 (sense CCATCAGGACCACTATTAA; chemistry not given here)
The Score_si4 of the first is lower: 0.13 for the first, 0.57 for the second.

Compared with “s12452 (sense GGACCAAGATGATCAGAAA; chemistry not given here)”, “s12470 (sense GGATGTGGACAACAAAGTA; chemistry not given here)” is higher in Score_si4: 0.08 for the first, 1.56 for the second.

First: s13807 (sense GCATCTGAAGACTCAGGCA; chemistry not given here)
Second: s15564 (sense GCTTGAAGCTGAAAAGCGA; chemistry not given here) [reference compound]
The Score_si4 of the first is lower: -0.26 for the first, 1.62 for the second.

First: s15614 (sense GCAAGTCGTGAAACTATAA; chemistry not given here)
Second: s15684 (sense GGAGCTGATCATCAACAAA; chemistry not given here)
The Score_si4 of the first is lower: 0.64 for the first, 1.33 for the second.

First: s8292 (sense GGATTGTTATCCGACTGAA; chemistry not given here)
Second: s8322 (GGTCGGAGATTTGCAAGGA; chemistry not given here)
The Score_si3 of the first is higher: 1.63 for the first, 1.44 for the second.

First: s8541 (CAATCTCCGGAGGCACGAA; chemistry not given here)
Second: s9030 (CATCTGGAATTAACTGGAT; chemistry not given here)
The Score_si3 of the first is lower: 0.12 for the first, 1.53 for the second.

Going from “s9324 (ACAACTTCAGTGCTGATCA; chemistry not given here)” to “s9339 (TCACTTCTAGTTTTACTTT; chemistry not given here) [reference compound]”, the Score_si3 falls from 0.83 to -0.69.

Going from “s9665 (CTCTCGTCCTTCTAGTAAA; chemistry not given here) [reference compound]” to “s10096 (GGTGTAAGATCAAAGAGAT; chemistry not given here)”, the Score_si3 rises from -0.95 to 1.3.

First: s10395 (sense GGACGACTTCTTTAAGTCA; chemistry not given here)
Second: s10856 (sense AAGTTTACGTGAACAAATT; chemistry not given here)
The Score_si3 of the first is higher: 1.58 for the first, -0.27 for the second.

First: s12109 (sense CAGCCCTTGTTCTCATCAA; chemistry not given here)
Second: s12243 (sense GCTGGGACAAGACACTGTA; chemistry not given here)
The Score_si3 of the first is lower: 1.16 for the first, 1.87 for the second.

Going from “s12381 (sense AGGCTCAGATCGACCAATA; chemistry not given here)” to “s12384 (sense TCGTCCTCTTTAACCCTGA; chemistry not given here)”, the Score_si3 rises from 0.71 to 1.24.

Compared with “s12471 (sense CTTCTGTACCCATCAGTAA; chemistry not given here)”, “s13805 (sense TCACTGTGCTGATCGGGAA; chemistry not given here)” is lower in Score_si3: 1.63 for the first, 0.78 for the second.

Compared with “s14380 (sense GGACCACGTCAAGACTTGT; chemistry not given here) [reference compound]”, “s14706 (sense GCATGATCTAGATCGAGTA; chemistry not given here)” is higher in Score_si3: -0.84 for the first, 1.88 for the second.

Substance “s15562 (sense GCTTAGAAATGGACGACGA; chemistry not given here) [reference compound]” has a Score_si3 of -0.27.

Compared with “s8324 (GCTGGGAAGGGATACCACA; chemistry not given here)”, “s9719 (GGTCTATGATTGACAAGTA; chemistry not given here)” is lower in Score_si1: 1.92 for the first, 1.65 for the second.

Compared with “s10956 (sense CAAGCGGATTTCTACCCTT; chemistry not given here)”, “s11515 (sense GGATAACACTGTACAAGCT; chemistry not given here)” is higher in Score_si1: 1.05 for the first, 1.79 for the second.

Compared with “s12353 (sense GGCATGTCGGTTACAAGAA; chemistry not given here)”, “s15685 (sense GGATGAGAGTCGCACCTAT; chemistry not given here)” is higher in Score_si1: 1.86 for the first, 2.03 for the second.

“s15687 (sense CCCGTATCATGATCCACCA; chemistry not given here)” showed a Score_si1 of 1.56.

Going from “s8542 (AGGTTTTAACGATTTGTTT; chemistry not given here)” to “s9326 (GGACTTAGTATAATGTGAA; chemistry not given here)”, the Score_si2 rises from 0.14 to 1.

Compared with “s9338 (ACAAGCTCTCCAACAATTA; chemistry not given here) [reference compound]”, “s9627 (GGACCAGTTTGAGAGTGAA; chemistry not given here)” is higher in Score_si2: -0.79 for the first, 1.39 for the second.

First: s10858 (sense CCCGCTTTATCGAAGGCAA; chemistry not given here)
Second: s11587 (sense CAGGTCACATTGTTCCTGA; chemistry not given here)
The Score_si2 of the first is lower: 1.05 for the first, 1.27 for the second.

First: s11745 (sense CACTCTCTGTAAGCATATA; chemistry not given here)
Second: s12099 (sense GCTTGTAGGTGATACACCT; chemistry not given here)
The Score_si2 of the first is higher: 1.42 for the first, 1.09 for the second.

Going from “s12110 (sense CAATCTCTCTTATCCTTGA; chemistry not given here)” to “s12382 (sense GATCCGAGCTAAAATCCCA; chemistry not given here)”, the Score_si2 rises from 1.28 to 1.86.

Compared with “s13806 (sense TCATCACCGTGTCCAATCA; chemistry not given here)”, “s14080 (sense GAGTGGTCTTTTCAACACT; chemistry not given here)” is lower in Score_si2: 1.6 for the first, 1.38 for the second.

Compared with “s14674 (sense GTATGAAGGAGGTATCTTT; chemistry not given here)”, “s14705 (sense GCAGTTGAATTATCACAGT; chemistry not given here)” is lower in Score_si2: 2.12 for the first, 1.97 for the second.

Substance “s15686 (sense CCATCCACATGTACATCAA; chemistry not given here)” has a Score_si2 of 1.49.

Reference: publication PMC4865845, “A human genome-wide loss-of-function screen identifies effective chikungunya antiviral drugs” (Nature Communications, 2016)
